From PMC10465592, “Reduced ADP off-rate by the yeast CCT2 double mutation T394P/R510H which causes Leber congenital amaurosis in humans” (Communications Biology, 2023)

How the values were obtained:
[1] = molecular target: T1, CCT/TRiC (Saccharomyces cerevisiae); experiment: stopped-flow transient kinetics of phosphate release (labelled phosphate-binding protein), burst-phase rates fit to conformational selection; type: biochemical; conditions: 25 °C, pH 7.5 Tris-HCl, 10 mM MgCl2, 50 mM KCl, 20% glycerol, 1 mM DTT; stronger of two burst phases; read-out: ATP affinity (Kd)
T1 construct: gene CCT2; native complex from yeast cells, two back-to-back rings each of eight distinct subunits CCT1-CCT8; CCT2 mutations introduced in the chromosomal gene

[2] = molecular target: T1, CCT/TRiC (Saccharomyces cerevisiae); experiment: stopped-flow transient kinetics of phosphate release (labelled phosphate-binding protein), burst-phase rates fit to simple binding; type: biochemical; conditions: 25 °C, pH 7.5 Tris-HCl, 10 mM MgCl2, 50 mM KCl, 20% glycerol, 1 mM DTT; both burst phases similar; read-out: ATP affinity (Kd)
Source text: stopped-flow transient kinetics of phosphate release (labelled phosphate-binding protein), burst-phase rates fit to simple binding on CCT/TRiC (Saccharomyces cerevisiae) | the ATP affinities corresponding to the two burst phases are similar and found to be

Kd [1]: ~27 µM
Kd [2]: ~7 µM
Structure (SMILES): Nc1ncnc2c1ncn2[C@@H]1O[C@H](COP(=O)(O)OP(=O)(O)OP(=O)(O)O)[C@@H](O)[C@H]1O [ATP]
